Data as given in paper PMC6934184, “Selective DNA-PKcs inhibition extends the therapeutic index of localized radiotherapy and chemotherapy” (The Journal of Clinical Investigation, 2019).

Biological target: T1, RPS6KA5 (MSK1) (Homo sapiens, UniProt O75582)
T1 construct: purchased Thermo Fisher Scientific (Life Technologies) SelectScreen
Experiment: SelectScreen Z'LYTE
Format: biochemical
Summary of the method: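 SelectScreen broad panel; activity (Z'LYTE, Adapta) plus binding formats. ATP: Km app for CSF1R Z'LYTE; 10 for CAMK1 Adapta. Readout = % per kinase.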

T1 sequence (O75582 whole entry): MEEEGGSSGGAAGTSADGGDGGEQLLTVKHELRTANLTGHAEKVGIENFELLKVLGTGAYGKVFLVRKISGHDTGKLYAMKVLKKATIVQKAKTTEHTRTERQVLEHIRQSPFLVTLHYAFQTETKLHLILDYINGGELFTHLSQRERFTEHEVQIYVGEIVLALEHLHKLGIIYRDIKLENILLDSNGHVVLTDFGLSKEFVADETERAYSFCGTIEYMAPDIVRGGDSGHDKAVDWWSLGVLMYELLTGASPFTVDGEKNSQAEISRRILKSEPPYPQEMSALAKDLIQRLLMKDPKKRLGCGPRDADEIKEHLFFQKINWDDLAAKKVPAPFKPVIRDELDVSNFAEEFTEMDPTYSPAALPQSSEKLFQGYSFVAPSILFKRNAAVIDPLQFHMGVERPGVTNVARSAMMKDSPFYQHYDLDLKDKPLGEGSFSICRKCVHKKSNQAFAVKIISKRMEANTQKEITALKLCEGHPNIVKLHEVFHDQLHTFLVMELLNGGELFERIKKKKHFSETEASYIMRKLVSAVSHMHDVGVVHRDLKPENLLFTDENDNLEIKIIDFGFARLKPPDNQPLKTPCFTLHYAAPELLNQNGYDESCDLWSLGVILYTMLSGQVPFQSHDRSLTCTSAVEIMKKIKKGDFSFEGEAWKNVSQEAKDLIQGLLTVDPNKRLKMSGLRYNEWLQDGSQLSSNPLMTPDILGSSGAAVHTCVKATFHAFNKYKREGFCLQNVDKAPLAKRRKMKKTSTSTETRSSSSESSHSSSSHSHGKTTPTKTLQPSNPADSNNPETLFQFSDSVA

CN(C(=O)CN1CCOCC1)c1ccc2sc3c(-c4cccc5c(=O)cc(N6CC7CCC(C6)O7)oc45)cccc3c2c1 [NU5455]
inhibition at 1 µM: 7.4%
